Read-outs that look alike come from different tables or passages of the source.

Holding throughout (assay): biochemical
Design in all cases: In vitro kinase panel profiling, per cent remaining kinase activity at 10 uM

The target in one test is T1, Abl(h) (Homo sapiens, UniProt P00519).
T1 construct: gene ABL1
The note with it: atp_concentration=45, read-out: % of control remaining. An excerpt: (§1) We derisk potential for off-target activity by profiling the compound in a CEREP panel, a standard secondary pharmacology assessment, as well as a kinase panel to derisk a potential hinge-binding motif in our leads, and a PARP panel to derisk activity against human […]. Reassuringly, the compounds are selective, with the only off-targets being moderate human CHRM2 and KOR receptors activity associated with ASAP-0011198.

The target of the next test is T2, CK2α2(h) (Homo sapiens, UniProt P19784).
T2 construct: gene CSNK2A2
The note with it: atp_concentration=10, read-out: % of control remaining.
Text: as §1

Test [1] concerns the target T3, PI3 Kinase (p110α/p85α)(h) (Homo sapiens, UniProt P42336).
T3 construct: gene PIK3CA
The note with it: atp_concentration=200, read-out: % of control remaining.
Text: as §1

The next test addresses T4, PKBα(h) (Homo sapiens, UniProt P31749).
T4 construct: gene AKT1
The note with it: atp_concentration=155, read-out: % of control remaining.
Text: as §1

The target of the next test is T5, PKG1α(h) (Homo sapiens, UniProt Q13976).
T5 construct: gene PRKG1; isoform alpha
T5 sequence (Q13976 1-671): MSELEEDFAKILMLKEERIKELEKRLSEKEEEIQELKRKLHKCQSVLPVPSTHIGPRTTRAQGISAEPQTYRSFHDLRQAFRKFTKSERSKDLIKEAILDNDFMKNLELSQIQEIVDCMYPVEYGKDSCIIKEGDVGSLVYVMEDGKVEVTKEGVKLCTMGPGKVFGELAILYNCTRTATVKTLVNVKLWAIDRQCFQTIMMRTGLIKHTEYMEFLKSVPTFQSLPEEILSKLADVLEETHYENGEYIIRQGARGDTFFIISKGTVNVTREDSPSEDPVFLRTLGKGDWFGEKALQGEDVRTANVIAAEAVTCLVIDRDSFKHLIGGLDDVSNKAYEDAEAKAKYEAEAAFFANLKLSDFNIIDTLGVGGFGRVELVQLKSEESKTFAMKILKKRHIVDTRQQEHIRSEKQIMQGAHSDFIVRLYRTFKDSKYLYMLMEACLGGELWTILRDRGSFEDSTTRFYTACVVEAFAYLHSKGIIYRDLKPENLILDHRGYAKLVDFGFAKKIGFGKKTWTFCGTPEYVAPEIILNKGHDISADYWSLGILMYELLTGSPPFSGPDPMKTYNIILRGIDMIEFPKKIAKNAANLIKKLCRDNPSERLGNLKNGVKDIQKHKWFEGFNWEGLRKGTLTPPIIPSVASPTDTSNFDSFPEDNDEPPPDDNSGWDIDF
The note with it: atp_concentration=90, read-out: % of control remaining.
Text: as §1

For the next test, the target named is T6, ROCK-I(h) (Homo sapiens, UniProt Q13464).
T6 construct: gene ROCK1
The note with it: atp_concentration=70, read-out: % of control remaining.
Text: as §1

In the next test the target is T7, Rse(h) (Homo sapiens, UniProt Q06418).
T7 construct: gene TYRO3
T7 sequence (Q06418 1-890): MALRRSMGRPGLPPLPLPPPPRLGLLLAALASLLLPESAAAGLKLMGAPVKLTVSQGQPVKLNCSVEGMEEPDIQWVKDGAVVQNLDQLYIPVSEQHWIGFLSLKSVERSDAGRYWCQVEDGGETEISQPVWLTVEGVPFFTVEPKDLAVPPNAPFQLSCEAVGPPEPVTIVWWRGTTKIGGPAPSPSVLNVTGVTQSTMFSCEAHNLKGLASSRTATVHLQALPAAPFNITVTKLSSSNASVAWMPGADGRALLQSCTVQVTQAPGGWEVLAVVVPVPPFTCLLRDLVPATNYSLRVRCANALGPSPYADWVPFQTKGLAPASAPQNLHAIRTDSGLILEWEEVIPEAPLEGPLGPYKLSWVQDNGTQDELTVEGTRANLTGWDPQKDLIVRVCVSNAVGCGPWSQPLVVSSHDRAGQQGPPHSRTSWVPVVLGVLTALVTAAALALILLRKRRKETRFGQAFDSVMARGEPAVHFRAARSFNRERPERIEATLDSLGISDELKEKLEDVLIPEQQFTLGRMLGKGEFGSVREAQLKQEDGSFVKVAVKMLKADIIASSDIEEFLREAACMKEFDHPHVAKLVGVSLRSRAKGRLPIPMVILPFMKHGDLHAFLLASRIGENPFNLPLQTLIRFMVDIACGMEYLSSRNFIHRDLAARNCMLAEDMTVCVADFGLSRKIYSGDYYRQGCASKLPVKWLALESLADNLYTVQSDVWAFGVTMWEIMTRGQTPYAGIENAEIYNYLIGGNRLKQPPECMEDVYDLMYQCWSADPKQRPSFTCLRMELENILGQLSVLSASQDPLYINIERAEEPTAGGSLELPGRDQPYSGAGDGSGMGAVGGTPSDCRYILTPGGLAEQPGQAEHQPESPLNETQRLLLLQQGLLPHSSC
The note with it: atp_concentration=45, read-out: % of control remaining.
Text: as §1

In a further test the target is T8, Rsk1(h) (Homo sapiens, UniProt Q15418).
T8 construct: gene RPS6KA1
As to conditions: atp_concentration=45, read-out: % of control remaining.
Text: as §1

The next test concerns the target T9, SAPK2a(h) (Homo sapiens, UniProt Q16539).
T9 construct: gene MAPK14
The note with it: atp_concentration=90, read-out: % of control remaining.
Text: as §1

T3 sequence (P42336 whole entry): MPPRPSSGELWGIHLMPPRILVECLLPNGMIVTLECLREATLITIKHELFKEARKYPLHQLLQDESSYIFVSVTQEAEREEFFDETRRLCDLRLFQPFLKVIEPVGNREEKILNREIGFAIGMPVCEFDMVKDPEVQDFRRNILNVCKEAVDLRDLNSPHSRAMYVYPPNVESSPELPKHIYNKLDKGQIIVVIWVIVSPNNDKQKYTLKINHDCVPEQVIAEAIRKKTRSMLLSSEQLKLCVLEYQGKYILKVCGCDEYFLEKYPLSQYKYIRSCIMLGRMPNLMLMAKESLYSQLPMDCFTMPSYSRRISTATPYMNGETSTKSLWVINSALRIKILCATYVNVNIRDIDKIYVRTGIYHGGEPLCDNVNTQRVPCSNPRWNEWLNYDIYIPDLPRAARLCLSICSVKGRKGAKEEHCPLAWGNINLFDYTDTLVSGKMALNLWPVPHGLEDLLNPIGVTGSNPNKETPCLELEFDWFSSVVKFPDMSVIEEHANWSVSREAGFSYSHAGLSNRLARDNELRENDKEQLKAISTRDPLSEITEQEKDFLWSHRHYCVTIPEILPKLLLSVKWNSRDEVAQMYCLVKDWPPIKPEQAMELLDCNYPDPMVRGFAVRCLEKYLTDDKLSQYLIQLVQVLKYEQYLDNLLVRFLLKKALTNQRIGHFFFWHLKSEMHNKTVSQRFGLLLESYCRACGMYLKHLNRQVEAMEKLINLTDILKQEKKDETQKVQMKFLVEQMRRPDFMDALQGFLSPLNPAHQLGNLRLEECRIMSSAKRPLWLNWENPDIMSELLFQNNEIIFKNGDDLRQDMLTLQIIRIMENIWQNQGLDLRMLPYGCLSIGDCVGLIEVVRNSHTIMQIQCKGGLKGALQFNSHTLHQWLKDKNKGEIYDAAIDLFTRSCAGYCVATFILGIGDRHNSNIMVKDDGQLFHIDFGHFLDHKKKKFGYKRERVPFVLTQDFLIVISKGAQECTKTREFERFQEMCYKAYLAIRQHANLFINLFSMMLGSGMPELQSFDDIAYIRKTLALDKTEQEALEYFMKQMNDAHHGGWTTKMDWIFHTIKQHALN
T3 sequence (P27986 whole entry partner): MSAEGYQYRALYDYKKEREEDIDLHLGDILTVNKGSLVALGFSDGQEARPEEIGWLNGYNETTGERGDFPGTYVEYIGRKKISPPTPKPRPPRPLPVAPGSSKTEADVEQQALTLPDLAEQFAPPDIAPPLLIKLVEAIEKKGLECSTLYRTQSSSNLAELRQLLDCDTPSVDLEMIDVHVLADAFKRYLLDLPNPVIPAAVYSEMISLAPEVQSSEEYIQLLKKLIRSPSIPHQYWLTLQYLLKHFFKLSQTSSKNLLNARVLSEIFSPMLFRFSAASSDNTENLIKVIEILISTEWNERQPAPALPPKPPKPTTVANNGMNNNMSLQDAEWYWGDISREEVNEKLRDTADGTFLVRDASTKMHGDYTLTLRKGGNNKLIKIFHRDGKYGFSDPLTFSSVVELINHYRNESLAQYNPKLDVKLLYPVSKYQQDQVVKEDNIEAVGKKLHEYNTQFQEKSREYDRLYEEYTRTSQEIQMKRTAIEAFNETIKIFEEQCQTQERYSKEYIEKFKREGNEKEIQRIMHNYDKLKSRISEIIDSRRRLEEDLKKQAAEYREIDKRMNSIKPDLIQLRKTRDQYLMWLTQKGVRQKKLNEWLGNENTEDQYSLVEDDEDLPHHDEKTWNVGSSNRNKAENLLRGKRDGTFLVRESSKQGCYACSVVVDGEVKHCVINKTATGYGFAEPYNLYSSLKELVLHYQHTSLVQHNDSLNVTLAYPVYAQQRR
T6 sequence (Q13464 whole entry): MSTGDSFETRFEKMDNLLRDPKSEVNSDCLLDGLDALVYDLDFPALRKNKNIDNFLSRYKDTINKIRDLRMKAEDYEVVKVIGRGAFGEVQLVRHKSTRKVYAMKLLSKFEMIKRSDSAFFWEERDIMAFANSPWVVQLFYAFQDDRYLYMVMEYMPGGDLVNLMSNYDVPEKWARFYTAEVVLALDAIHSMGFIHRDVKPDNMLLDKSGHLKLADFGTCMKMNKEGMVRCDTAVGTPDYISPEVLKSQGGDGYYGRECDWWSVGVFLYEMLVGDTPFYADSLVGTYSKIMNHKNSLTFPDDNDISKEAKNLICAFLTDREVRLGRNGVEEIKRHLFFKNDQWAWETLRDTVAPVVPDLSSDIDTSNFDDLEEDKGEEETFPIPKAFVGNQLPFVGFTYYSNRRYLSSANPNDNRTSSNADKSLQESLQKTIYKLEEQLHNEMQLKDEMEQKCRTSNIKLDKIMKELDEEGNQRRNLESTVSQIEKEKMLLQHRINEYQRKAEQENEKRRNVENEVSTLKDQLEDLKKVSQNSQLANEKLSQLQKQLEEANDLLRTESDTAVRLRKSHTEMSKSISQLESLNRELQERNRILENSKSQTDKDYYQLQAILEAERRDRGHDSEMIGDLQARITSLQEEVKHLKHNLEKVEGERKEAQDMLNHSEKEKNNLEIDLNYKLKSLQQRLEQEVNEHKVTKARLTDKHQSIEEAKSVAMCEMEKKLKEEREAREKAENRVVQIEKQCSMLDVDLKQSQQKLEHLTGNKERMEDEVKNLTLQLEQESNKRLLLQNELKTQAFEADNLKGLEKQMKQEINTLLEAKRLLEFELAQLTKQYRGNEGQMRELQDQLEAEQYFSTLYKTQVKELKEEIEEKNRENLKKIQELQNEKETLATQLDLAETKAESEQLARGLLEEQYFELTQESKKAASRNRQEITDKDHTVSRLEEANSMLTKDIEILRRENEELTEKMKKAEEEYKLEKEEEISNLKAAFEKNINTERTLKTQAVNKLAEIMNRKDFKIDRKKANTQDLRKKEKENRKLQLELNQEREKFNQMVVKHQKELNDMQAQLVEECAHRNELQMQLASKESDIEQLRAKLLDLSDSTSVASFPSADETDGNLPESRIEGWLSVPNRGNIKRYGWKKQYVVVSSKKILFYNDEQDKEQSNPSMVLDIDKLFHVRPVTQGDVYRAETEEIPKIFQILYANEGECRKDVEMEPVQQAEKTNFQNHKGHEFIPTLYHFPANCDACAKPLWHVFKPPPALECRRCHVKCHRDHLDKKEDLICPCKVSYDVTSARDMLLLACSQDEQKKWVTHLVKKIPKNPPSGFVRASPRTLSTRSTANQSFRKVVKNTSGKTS
T4 sequence (P31749 whole entry): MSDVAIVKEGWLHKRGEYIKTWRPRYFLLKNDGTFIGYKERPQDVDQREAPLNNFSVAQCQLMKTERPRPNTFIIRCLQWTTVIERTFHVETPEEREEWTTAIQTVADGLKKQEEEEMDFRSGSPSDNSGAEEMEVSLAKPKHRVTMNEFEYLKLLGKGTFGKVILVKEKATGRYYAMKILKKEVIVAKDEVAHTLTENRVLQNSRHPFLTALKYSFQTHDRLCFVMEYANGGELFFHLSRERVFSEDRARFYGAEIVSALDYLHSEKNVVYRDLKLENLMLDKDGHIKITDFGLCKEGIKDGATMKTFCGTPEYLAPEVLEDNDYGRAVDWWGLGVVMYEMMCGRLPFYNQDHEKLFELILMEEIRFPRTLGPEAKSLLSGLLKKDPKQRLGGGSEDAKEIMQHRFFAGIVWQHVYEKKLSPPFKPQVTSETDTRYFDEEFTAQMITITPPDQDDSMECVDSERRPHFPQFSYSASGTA
T2 sequence (P19784 whole entry): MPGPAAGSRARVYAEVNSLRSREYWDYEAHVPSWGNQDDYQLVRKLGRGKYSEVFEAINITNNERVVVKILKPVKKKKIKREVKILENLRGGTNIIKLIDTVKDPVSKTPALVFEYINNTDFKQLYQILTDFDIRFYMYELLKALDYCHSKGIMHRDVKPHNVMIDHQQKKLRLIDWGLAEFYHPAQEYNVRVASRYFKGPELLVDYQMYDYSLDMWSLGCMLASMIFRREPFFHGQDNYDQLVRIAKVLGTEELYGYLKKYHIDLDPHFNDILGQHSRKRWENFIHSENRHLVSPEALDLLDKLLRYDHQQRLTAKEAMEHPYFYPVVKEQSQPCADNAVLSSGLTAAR
T9 sequence (Q16539 whole entry): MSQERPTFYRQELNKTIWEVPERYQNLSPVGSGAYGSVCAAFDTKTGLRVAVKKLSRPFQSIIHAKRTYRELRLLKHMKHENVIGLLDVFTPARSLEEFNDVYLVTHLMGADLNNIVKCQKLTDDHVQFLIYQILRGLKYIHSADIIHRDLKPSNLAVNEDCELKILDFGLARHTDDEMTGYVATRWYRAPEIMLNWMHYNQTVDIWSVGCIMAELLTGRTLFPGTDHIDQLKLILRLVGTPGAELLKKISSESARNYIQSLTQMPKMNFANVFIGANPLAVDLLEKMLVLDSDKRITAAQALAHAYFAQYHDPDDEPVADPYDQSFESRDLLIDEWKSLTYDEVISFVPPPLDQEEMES
T8 sequence (Q15418 whole entry): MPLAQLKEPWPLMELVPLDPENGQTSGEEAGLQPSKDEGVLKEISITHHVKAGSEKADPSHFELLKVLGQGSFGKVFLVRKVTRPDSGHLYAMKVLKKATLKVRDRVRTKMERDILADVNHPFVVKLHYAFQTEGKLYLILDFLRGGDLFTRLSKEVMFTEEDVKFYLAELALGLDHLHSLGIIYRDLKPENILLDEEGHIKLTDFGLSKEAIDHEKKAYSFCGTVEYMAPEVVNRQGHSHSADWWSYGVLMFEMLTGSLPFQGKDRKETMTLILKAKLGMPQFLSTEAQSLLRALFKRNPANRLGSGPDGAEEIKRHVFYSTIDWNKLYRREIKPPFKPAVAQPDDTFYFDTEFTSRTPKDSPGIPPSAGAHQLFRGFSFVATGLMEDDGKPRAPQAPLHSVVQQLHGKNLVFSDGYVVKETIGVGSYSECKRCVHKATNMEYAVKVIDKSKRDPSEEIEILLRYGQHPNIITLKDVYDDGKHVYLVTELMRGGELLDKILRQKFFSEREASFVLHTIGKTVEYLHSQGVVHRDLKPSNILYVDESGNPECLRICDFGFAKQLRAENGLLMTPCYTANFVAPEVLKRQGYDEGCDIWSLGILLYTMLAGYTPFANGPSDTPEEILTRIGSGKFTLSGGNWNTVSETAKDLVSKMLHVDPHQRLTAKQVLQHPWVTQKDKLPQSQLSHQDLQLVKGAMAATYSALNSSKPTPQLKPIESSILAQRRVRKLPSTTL

As to `Cc1nn(C)cc1-c1cc2c(NC(c3ccc4c(c3)S(=O)(=O)CCC4)C(C)C)ncnc2[nH]1` (stereo not drawn) [ASAP-0011446], the remaining activity at 10 µM on Abl(h) (batch_name=ASAP-0011446-002) is 76%; at CK2α2(h) (batch_name=ASAP-0011446-002) it was 92%; in test [1] (batch_name=ASAP-0011446-002), 102%; at PKBα(h) (batch_name=ASAP-0011446-002), 91%; on PKG1α(h) (batch_name=ASAP-0011446-002), 128%; at ROCK-I(h) (batch_name=ASAP-0011446-002) it was 103%. The figures for the remaining activity at 10 µM at Rse(h) (batch_name=ASAP-0011446-002), on Rsk1(h) (batch_name=ASAP-0011446-002) and at SAPK2a(h) (batch_name=ASAP-0011446-002) were 96%, 110% and 98%, respectively.
`CNCc1cc(-c2cc3c(N[C@@H](c4ccc5c(c4)S(=O)(=O)CCC5)C(C)C)ncnc3[nH]2)co1` [ASAP-0011176]: the remaining activity at 10 µM at Abl(h) (batch_name=ASAP-0011176-002) came to 51%; on CK2α2(h) (batch_name=ASAP-0011176-002), 90%; in test [1] (batch_name=ASAP-0011176-002), 99%; on PKBα(h) (batch_name=ASAP-0011176-002), 96%; at PKG1α(h) (batch_name=ASAP-0011176-002) it was 115%; at ROCK-I(h) (batch_name=ASAP-0011176-002), 102%. Moreover, the remaining activity at 10 µM came to 81% on Rse(h) (batch_name=ASAP-0011176-002), 90% at Rsk1(h) (batch_name=ASAP-0011176-002) and 97% on SAPK2a(h) (batch_name=ASAP-0011176-002).
For `C[C@H](C(=O)O)[C@@H](NC(=O)c1ncnc2[nH]ccc12)c1ccc(Br)cc1` [ASAP-0014722], the remaining activity at 10 µM on Abl(h) (batch_name=ASAP-0014722-002) is 97%; at CK2α2(h) (batch_name=ASAP-0014722-002), 91%; in [1] (batch_name=ASAP-0014722-002) it was 100%; at PKBα(h) (batch_name=ASAP-0014722-002), 95%; on PKG1α(h) (batch_name=ASAP-0014722-002) it was 118%; on ROCK-I(h) (batch_name=ASAP-0014722-002), 90%. Besides, the remaining activity at 10 µM was 87% on Rse(h) (batch_name=ASAP-0014722-002), 88% at Rsk1(h) (batch_name=ASAP-0014722-002) and 103% on SAPK2a(h) (batch_name=ASAP-0014722-002).
In the case of `CC(C)C(Nc1ncnc2[nH]ccc12)c1ccc2c(c1)S(=O)(=O)CCC2` (stereo not drawn) [ASAP-0008327], the remaining activity at 10 µM stood at 93% at Abl(h) (batch_name=ASAP-0008327-001); 90% at CK2α2(h) (batch_name=ASAP-0008327-001); 104% in test [1] (batch_name=ASAP-0008327-001); 96% at PKBα(h) (batch_name=ASAP-0008327-001); 88% on PKG1α(h) (batch_name=ASAP-0008327-001); 110% at ROCK-I(h) (batch_name=ASAP-0008327-001). Besides, the remaining activity at 10 µM at Rse(h) (batch_name=ASAP-0008327-001) was found to be 115%; on Rsk1(h) (batch_name=ASAP-0008327-001), 92%; on SAPK2a(h) (batch_name=ASAP-0008327-001), 108%.
Take `CC(C)[C@H](Nc1ncnc2[nH]c(-c3cnn(C)c3C#N)cc12)c1ccc2c(n1)OCCO2` [ASAP-0010715]: the remaining activity at 10 µM at Abl(h) (batch_name=ASAP-0010715-002) came out at 57%; on CK2α2(h) (batch_name=ASAP-0010715-002), 95%; in test [1] (batch_name=ASAP-0010715-002), 70%; at PKBα(h) (batch_name=ASAP-0010715-002) it was 90%; at PKG1α(h) (batch_name=ASAP-0010715-002), 130%; at ROCK-I(h) (batch_name=ASAP-0010715-002), 115%. Moreover, the remaining activity at 10 µM is 105% on Rse(h) (batch_name=ASAP-0010715-002), 120% at Rsk1(h) (batch_name=ASAP-0010715-002) and 99% on SAPK2a(h) (batch_name=ASAP-0010715-002).
For the molecule `COc1ccc([C@H](Cc2nnn[nH]2)NC(=O)c2ncnc3[nH]ccc23)cc1` [ASAP-0015381], the remaining activity at 10 µM stood at 102% on Abl(h) (batch_name=ASAP-0015381-001); 93% on CK2α2(h) (batch_name=ASAP-0015381-001); 99% in test [1] (batch_name=ASAP-0015381-001); 97% on PKBα(h) (batch_name=ASAP-0015381-001); 121% on PKG1α(h) (batch_name=ASAP-0015381-001); 103% at ROCK-I(h) (batch_name=ASAP-0015381-001). Besides, the remaining activity at 10 µM on Rse(h) (batch_name=ASAP-0015381-001) amounted to 100%; at Rsk1(h) (batch_name=ASAP-0015381-001) it was 102%; at SAPK2a(h) (batch_name=ASAP-0015381-001), 103%.

(Values after publication doi:10.1101/2024.08.19.608619, “Discovery of potent SARS-CoV-2 nsp3 macrodomain inhibitors uncovers lack of translation to cellular antiviral response” (bioRxiv, 2024).)
